PubChem BioAssay (NCI)
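Following 48 hours of exposure in 96-well plates, responses at five concentrations were used to interpolate endpoints linearly. Here, GI50 denotes the concentration required for 50% inhibition of growth. TGI: total growth inhibition.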

Tests used:
Experiment in all cases: DTP human tumour cell line panel, 48 h
HCC-2998 colon = tested on: HCC-2998 colon
CCRF-CEM leukemia = tested on: CCRF-CEM leukemia
MALME-3M melanoma = tested on: MALME-3M melanoma
SF-539 CNS = tested on: SF-539 CNS
UACC-62 melanoma = tested on: UACC-62 melanoma
MOLT-4 leukemia = tested on: MOLT-4 leukemia
CAKI-1 renal = tested on: CAKI-1 renal
MDA-N = tested on: MDA-N
MDA-MB-435 = tested on: MDA-MB-435
RPMI-8226 leukemia = tested on: RPMI-8226 leukemia

Compound | GI50 (HCC-2998 colon) | TGI (HCC-2998 colon) | GI50 (CCRF-CEM leukemia) | TGI (CCRF-CEM leukemia) | GI50 (MALME-3M melanoma) | TGI (MALME-3M melanoma) | GI50 (SF-539 CNS) | TGI (SF-539 CNS) | GI50 (UACC-62 melanoma) | TGI (UACC-62 melanoma) | GI50 (MOLT-4 leukemia) | TGI (MOLT-4 leukemia) | GI50 (CAKI-1 renal) | TGI (CAKI-1 renal) | TGI (MDA-N) | TGI (MDA-MB-435) | TGI (RPMI-8226 leukemia) | GI50 (RPMI-8226 leukemia) | GI50 (MDA-MB-435)
c1csc(-c2c3ccc(=[N+]4CCCCC4)cc-3oc3cc(N4CCCCC4)ccc23)c1 | 0.0391 µM | 0.14 µM | 0.0503 µM | 1.07 µM | 0.027 µM | 0.0822 µM | 0.0446 µM | 0.195 µM | 0.159 µM | 0.356 µM | 0.0515 µM | 0.473 µM | 0.131 µM | 0.305 µM |  |  |  |  | 
CC12CC1C(c1cccc([N+](=O)[O-])c1)(c1cccc([N+](=O)[O-])c1)N=N2 (stereo unspecified) |  | > 100 µM |  | 43.9 µM |  | 53.1 µM |  | 52.9 µM |  | 44.1 µM |  | > 100 µM |  |  | 50.5 µM | > 100 µM | 35.9 µM |  | 
O=C([CH-]C(=O)c1ccccc1)c1ccccc1.O=C([CH-]C(=O)c1ccccc1)c1ccccc1.[O]=[U+2]=[O] |  |  |  |  |  |  | 2.45 µM | 6.44 µM | 2.43 µM | 6.91 µM | 2.57 µM | 27.3 µM | 3.79 µM | 15.6 µM |  |  | 6.4 µM | 1.99 µM | 
O=c1n(Cc2ccccc2)c(=O)n2c(=O)n(Cc3ccccc3)c(=O)n12 |  | > 100 µM |  | > 100 µM |  | > 100 µM |  | > 100 µM |  | > 100 µM |  |  |  | > 100 µM | > 100 µM | > 100 µM | > 100 µM |  | 
Clc1ccc(Cl)c(SCCCN2CCNCC2)c1 |  | 12.8 µM |  | 50.5 µM |  | 31.8 µM |  | 51.4 µM |  | 7.85 µM |  | 40.6 µM |  | 41.8 µM |  | 41.4 µM | 48.6 µM |  | 
COc1cc2c(c(O)c1O)-c1ccc(OC)c(=O)cc1C(NC(C)=O)CC2 (stereo unspecified) |  | > 78.1 µM |  | 37.1 µM |  | > 100 µM |  | 24 µM |  | 45.7 µM |  | > 64.3 µM |  | > 100 µM |  |  | > 43.7 µM |  | 
S=C1CC(c2ccccc2)Sc2ccc(Cl)cc2N1 (stereo unspecified) |  |  |  | > 100 µM |  | > 100 µM |  |  |  | > 100 µM |  | > 100 µM |  | > 100 µM | > 100 µM | > 100 µM | > 100 µM |  | 
O=C1CCCc2cc3c(cc21)CC1(C3)Cc2ccc3c(c2C1)C(=O)CCC3 (stereo unspecified) |  | > 100 µM |  | 58.8 µM |  | 43.6 µM |  | > 100 µM |  |  |  | 22.7 µM |  | > 100 µM | 26.1 µM | 23.8 µM | 50.8 µM |  | 
Nc1nc(Nc2ccccc2)sc1C(=O)c1c[nH]c2ccccc12 |  |  |  | 14.5 µM |  | 34.5 µM |  | 27.4 µM |  | 28.9 µM |  | 25.8 µM |  |  | 25.3 µM | 23.2 µM | > 100 µM |  | 
Cc1ccc(-c2c(C#N)c(-c3ccc([N+](=O)[O-])cc3)c(C#N)c(=O)n2NS(=O)(=O)c2ccccc2)cc1 |  | > 100 µM |  | 58.3 µM |  | > 100 µM |  | > 100 µM |  | 64 µM |  | 52.8 µM |  | > 100 µM | > 100 µM | > 100 µM |  |  | 
COC(=O)C1(Cc2ccc3c(c2)CCC3)Cc2cc3c(cc2C1)CCC3 |  | 57.5 µM |  | 47.8 µM |  |  |  | > 100 µM |  | > 100 µM |  | > 100 µM |  |  | > 100 µM | > 100 µM | > 100 µM |  | 
COc1ccc(-c2csc(NC(=O)CSc3nc(C)c(-c4ccccc4)n3Nc3ccccc3)n2)cc1 | > 100 µM | > 100 µM | 3.92 µM | > 100 µM |  |  | > 100 µM | > 100 µM | 7.35 µM | > 100 µM | 3.78 µM | > 100 µM | 2.5 µM | > 100 µM |  | > 100 µM | > 100 µM | 6.74 µM | 5.77 µM
Cc1c2ccncc2c(C)c2c1[nH]c1ccccc12 |  | 4.87 µM |  | 4.44 µM |  | 4.92 µM |  | 2.11 µM |  | 6.02 µM |  | 1.75 µM |  | 3.81 µM |  | 2.21 µM | 3.11 µM |  | 0.762 µM
CC(C)(C)OC(=O)n1c(-c2ccccc2F)cc(=O)c2cc3c(cc21)OCO3 |  | > 32.3 µM |  | 11.1 µM |  | > 100 µM |  | > 72.9 µM |  | > 100 µM |  | 10 µM |  | > 37.3 µM |  | > 100 µM | 20.7 µM |  | 
O=[N+]([O-])c1ccc(C2=Nc3ccccc3SC(c3ccccc3)C2)cc1 (stereo unspecified) |  | 29 µM |  | 37.2 µM |  |  |  | 40.3 µM |  | 27.3 µM |  | > 100 µM |  | 35.8 µM |  |  | 48.4 µM |  | 
c1ccc(-c2cnc(-c3ccc(-c4ncc(-c5ccccc5)o4)cc3)o2)cc1 |  | > 100 µM |  | > 100 µM |  | > 100 µM |  |  |  | > 100 µM |  | > 100 µM |  |  | > 100 µM | > 100 µM | > 100 µM |  | 
Nc1nc(Nc2ccc(Cl)cc2)sc1C(=O)c1cccs1 |  |  |  | > 100 µM |  | > 100 µM |  | 61 µM |  | > 100 µM |  | > 100 µM |  |  | > 100 µM | > 100 µM | > 100 µM |  | 
CCOC(=O)C1CN(C2CC2)CCC1=O (stereo unspecified) |  | > 100 µM |  | > 100 µM |  | > 100 µM |  |  |  | > 100 µM |  | > 100 µM |  | > 100 µM | > 100 µM | > 100 µM | > 100 µM |  | 
C[C@]12CC[C@H](O)C=C1CC[C@@H]1[C@@H]2CC[C@]2(C)C(c3ccc(=O)oc3)CC[C@]12O (stereo partly specified) |  | 0.208 µM |  | 0.151 µM |  | 0.014 µM |  | 0.0152 µM |  | 0.0378 µM |  | < 0.0125 µM |  | 0.0225 µM |  |  | 0.0733 µM |  | 
Nc1ccc2nc3n(c2c1)C(=O)c1ccccc1-3 |  | > 100 µM |  | > 100 µM |  | > 100 µM |  | > 100 µM |  | > 100 µM |  | > 100 µM |  | > 100 µM | > 100 µM |  | > 100 µM |  | 
O=C(CNCc1ccccc1)Oc1c(Cl)c(Cl)c(Cl)c(Cl)c1Cl |  | 53.9 µM |  |  |  | 65.3 µM |  | 95.6 µM |  | 51.5 µM |  | 50.6 µM |  | 56.1 µM |  | > 100 µM |  |  | 
C[C@]1(S(=O)(=O)c2ccccc2)C[C@H]2N(Cc3ccccc3)[C@@H]1CCC21OCCO1 |  |  |  | > 100 µM |  | > 100 µM |  |  |  | > 100 µM |  | > 100 µM |  | > 100 µM | > 100 µM | > 100 µM |  |  | 
CCCCN(CCCC)C(=C(C(Cl)=C(Cl)Cl)[N+](=O)[O-])N(CCCC)CCCC |  |  |  |  |  | > 100 µM |  | > 100 µM |  | > 100 µM |  |  |  | > 100 µM | > 100 µM | > 100 µM | 58.7 µM |  | 
